Experiments:
[1] = biological target: GDP-bound KRAS wild-type protein (Homo sapiens, UniProt P01116); test: Binding to KRAS by surface plasmon resonance (SPR), Single Cycle Kinetics; settings: SPR, Single Cycle Kinetics, GDP-bound KRAS wild-type protein; read-out: KRAS KD
[2] = system: human lung cancer strain NCI-H441;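 also: cell proliferation inhibition after four days measured by CellTiter-Glo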
[3] = biological target: GDP-bound NRAS wild-type protein (Homo sapiens, UniProt P01111); test: Binding to NRAS by surface plasmon resonance (SPR), Single Cycle Kinetics; settings: SPR, GDP-bound NRAS wild-type protein vs GDP-bound KRAS wild-type protein
[4] = biological target: GDP-bound HRAS wild-type protein (Homo sapiens, UniProt P01112); test: Binding to HRAS by surface plasmon resonance (SPR), Single Cycle Kinetics; settings: SPR, GDP-bound HRAS wild-type protein vs GDP-bound KRAS wild-type protein
GDP-bound HRAS wild-type protein, sequence (P01112 whole entry): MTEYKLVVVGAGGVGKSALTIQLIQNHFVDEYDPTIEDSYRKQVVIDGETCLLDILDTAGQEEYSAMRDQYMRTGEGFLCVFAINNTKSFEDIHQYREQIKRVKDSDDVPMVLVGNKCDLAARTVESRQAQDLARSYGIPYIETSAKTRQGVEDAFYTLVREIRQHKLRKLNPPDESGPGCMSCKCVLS

GDP-bound NRAS wild-type protein, sequence (P01111 whole entry): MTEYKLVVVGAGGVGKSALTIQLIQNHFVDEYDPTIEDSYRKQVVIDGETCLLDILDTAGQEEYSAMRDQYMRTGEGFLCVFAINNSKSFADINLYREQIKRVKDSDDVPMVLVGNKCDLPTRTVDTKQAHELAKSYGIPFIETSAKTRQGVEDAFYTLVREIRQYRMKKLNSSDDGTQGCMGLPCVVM
GDP-bound KRAS wild-type protein, sequence (P01116 whole entry): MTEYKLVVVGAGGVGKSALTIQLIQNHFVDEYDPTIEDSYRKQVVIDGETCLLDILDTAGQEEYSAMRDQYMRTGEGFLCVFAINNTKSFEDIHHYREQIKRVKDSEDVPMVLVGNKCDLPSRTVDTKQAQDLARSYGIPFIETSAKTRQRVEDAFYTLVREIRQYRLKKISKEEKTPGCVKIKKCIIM

## CCOC[C@H]1C(=O)N[C@@H]([C@@H](C)CC)C(=O)N(C)CC(=O)N(C)[C@H]2C/C=C\CCN(C2=O)[C@@H](Cc2ccc(C(F)(F)F)cc2)C(=O)N(C)CC(=O)N[C@@H](CCc2ccc(C(F)(F)F)c(OC)c2)C(=O)N2C[C@H](OCC)C[C@H]2C(=O)N(C)C2(CCC2)C(=O)N(C)[C@@H](C(CC)CC)C(=O)N(C)[C@H](C(=O)N(C)C)CC(=O)N1C [PP2383]
[1]
  Kd: 0.12 nM
[2]
  IC50: 5.2 nM
[3]
  NRAS/KRAS (ratio of KD value for NRAS to KD value for KRAS): A (a compound having 10 or more and less than 20 is denoted as A)
[4]
  HRAS/KRAS (ratio of KD value for HRAS to KD value for KRAS): A (a compound having 10 or more and less than 20 is denoted as A)

## CC[C@H](C)[C@@H]1NC(=O)[C@H](COC)N(C)C(=O)C[C@@H](C(=O)N(C)C)N(C)C(=O)[C@H](C2CCCC2)N(C)C(=O)C2(CC(C)(C)C2)NC(=O)[C@@H]2C[C@H](C)CN2C(=O)[C@H](CCc2ccc(C(F)(F)F)c(OC)c2)NC(=O)CN(C)C(=O)[C@H](Cc2ccc(C)cc2)N2CC/C=C\C[C@@H](C2=O)N(C)C(=O)CN(C)C1=O [PP2385]
[1]
  Kd: 0.12 nM
[2]
  IC50: 7.8 nM
[3]
  NRAS/KRAS (ratio of KD value for NRAS to KD value for KRAS): A (a compound having 10 or more and less than 20 is denoted as A)
[4]
  HRAS/KRAS (ratio of KD value for HRAS to KD value for KRAS): B (a compound having 3 or more and less than 10 is denoted as B)

## CC[C@H](C)[C@@H]1NC(=O)[C@H](COC)N(C)C(=O)C[C@@H](C(=O)N(C)C)N(C)C(=O)[C@H](C2CCCC2)N(C)C(=O)C2(CC(C)(C)C2)NC(=O)[C@@H]2C[C@H](C)CN2C(=O)[C@H](CCc2ccc(C(F)(F)F)c(OC)c2)NC(=O)CN(C)C(=O)[C@H](Cc2ccc(C)cc2)N2CC/C=C\C[C@@H](C2=O)N(C)C(=O)[C@@H]2C[C@H](C)CN2C1=O [PP2386]
[1]
  Kd: 1.2 nM
[2]
  IC50: 28.1 nM
[3]
  NRAS/KRAS (ratio of KD value for NRAS to KD value for KRAS): A (a compound having 10 or more and less than 20 is denoted as A)
[4]
  HRAS/KRAS (ratio of KD value for HRAS to KD value for KRAS): B (a compound having 3 or more and less than 10 is denoted as B)

## CCC[C@H]1C(=O)N[C@@H]([C@@H](C)CC)C(=O)N2C[C@@H](OC)C[C@H]2C(=O)N(C)[C@H]2C/C=C\CCN(C2=O)[C@@H](Cc2ccc(C)cc2)C(=O)N(C)CC(=O)N[C@@H](CCc2ccc(C(F)(F)F)c(OC)c2)C(=O)N2C[C@@H](C)C[C@H]2C(=O)NC2(CC(C)(C)C2)C(=O)N(C)[C@@H](C2CCCC2)C(=O)N(C)[C@H](C(=O)N(C)C)CC(=O)N1C [PP2388]
[1]
  Kd: 0.33 nM
[2]
  IC50: 22.9 nM
[3]
  NRAS/KRAS (ratio of KD value for NRAS to KD value for KRAS): A (a compound having 10 or more and less than 20 is denoted as A)
[4]
  HRAS/KRAS (ratio of KD value for HRAS to KD value for KRAS): B (a compound having 3 or more and less than 10 is denoted as B)

## CCO[C@@H]1C[C@H]2C(=O)NC3(CC(C)(C)C3)C(=O)N(C)[C@@H](C3CCCC3)C(=O)N(C)[C@H](C(=O)N(C)C)CC(=O)N(C)[C@@H](COC)C(=O)N[C@@H]([C@@H](C)CC)C(=O)N(C)CC(=O)N(C)[C@H]3C/C=C\CCN(C3=O)[C@@H](Cc3ccc(C)cc3)C(=O)N(C)CC(=O)N[C@@H](CCc3ccc(C(F)(F)F)c(Cl)c3)C(=O)N2C1 [PP2389]
[1]
  Kd: 0.079 nM
[2]
  IC50: 21.3 nM
[3]
  NRAS/KRAS (ratio of KD value for NRAS to KD value for KRAS): A (a compound having 10 or more and less than 20 is denoted as A)
[4]
  HRAS/KRAS (ratio of KD value for HRAS to KD value for KRAS): B (a compound having 3 or more and less than 10 is denoted as B)

## CC[C@H](C)[C@@H]1NC(=O)[C@H](COC)N(C)C(=O)C[C@@H](C(=O)N(C)C)N(C)C(=O)[C@H](C2CCCC2)N(C)C(=O)C2(CC(C)(C)C2)NC(=O)[C@@H]2C[C@H](C)CN2C(=O)[C@H](CCc2ccc(C(F)(F)F)c(OC)c2)NC(=O)CN(C)C(=O)[C@H](Cc2ccc(C)cc2)N2CC/C=C\C[C@@H](C2=O)N(C)C(=O)[C@@H]2C[C@H](OC)CN2C1=O [PP2390]
[1]
  Kd: 0.28 nM
[2]
  IC50: 96.7 nM
[3]
  NRAS/KRAS (ratio of KD value for NRAS to KD value for KRAS): A (a compound having 10 or more and less than 20 is denoted as A)
[4]
  HRAS/KRAS (ratio of KD value for HRAS to KD value for KRAS): B (a compound having 3 or more and less than 10 is denoted as B)

## CCO[C@@H]1C[C@H]2C(=O)NC3(CC(C)(C)C3)C(=O)N(C)[C@@H](C3CCCC3)C(=O)N(C)[C@H](C(=O)N(C)C)CC(=O)N(C)[C@@H](COC)C(=O)N[C@@H]([C@@H](C)CC)C(=O)N(C)CC(=O)N(C)[C@H]3C/C=C\CCN(C3=O)[C@@H](Cc3ccc(C)cc3)C(=O)N(C)CC(=O)N[C@@H](CCc3cc(F)c(C(F)(F)F)c(F)c3)C(=O)N2C1 [PP2391]
[1]
  Kd: 0.043 nM
[2]
  IC50: 8.9 nM
[3]
  NRAS/KRAS (ratio of KD value for NRAS to KD value for KRAS): A (a compound having 10 or more and less than 20 is denoted as A)
[4]
  HRAS/KRAS (ratio of KD value for HRAS to KD value for KRAS): A (a compound having 10 or more and less than 20 is denoted as A)

## CCO[C@@H]1C[C@H]2C(=O)NC3(CC(C)(C)C3)C(=O)N(C)[C@@H](C3CCCC3)C(=O)N(C)[C@H](C(=O)N(C)CC)CC(=O)N(C)[C@@H](COC)C(=O)N[C@@H]([C@@H](C)CC)C(=O)N(C)CC(=O)N(C)[C@H]3C/C=C\CCN(C3=O)[C@@H](Cc3ccc(C)cc3)C(=O)N(C)CC(=O)N[C@@H](CCc3ccc(C(F)(F)F)c(OC)c3)C(=O)N2C1 [PP2392]
[1]
  Kd: 0.11 nM
[2]
  IC50: 25.4 nM
[3]
  NRAS/KRAS (ratio of KD value for NRAS to KD value for KRAS): A (a compound having 10 or more and less than 20 is denoted as A)
[4]
  HRAS/KRAS (ratio of KD value for HRAS to KD value for KRAS): A (a compound having 10 or more and less than 20 is denoted as A)

## CCOC[C@H]1C(=O)N[C@@H]([C@@H](C)CC)C(=O)N(C)CC(=O)N(C)[C@H]2C/C=C\CCN(C2=O)[C@@H](Cc2ccc(C)cc2)C(=O)N(C)CC(=O)N[C@@H](CCc2ccc(C(F)(F)F)c(OC)c2)C(=O)N2C[C@H](C)C[C@H]2C(=O)NC2(CC(C)(C)C2)C(=O)N(C)[C@@H](C2CCCC2)C(=O)N(C)[C@H](C(=O)N(C)C)CC(=O)N1C [PP2393]
[1]
  Kd: 0.12 nM
[2]
  IC50: 28.2 nM
[3]
  NRAS/KRAS (ratio of KD value for NRAS to KD value for KRAS): A (a compound having 10 or more and less than 20 is denoted as A)
[4]
  HRAS/KRAS (ratio of KD value for HRAS to KD value for KRAS): A (a compound having 10 or more and less than 20 is denoted as A)

## CCOC[C@H]1C(=O)N[C@@H]([C@@H](C)CC)C(=O)N(C)CC(=O)N(C)[C@H]2C/C=C\CCN(C2=O)[C@@H](Cc2ccc(C)cc2)C(=O)N(C)CC(=O)N[C@@H](CCc2ccc(C(F)(F)F)c(Cl)c2)C(=O)N2C[C@@H](C)C[C@H]2C(=O)NC2(CC(C)(C)C2)C(=O)N(C)[C@@H](C2CCCC2)C(=O)N(C)[C@H](C(=O)N(C)C)CC(=O)N1C [PP2394]
[1]
  Kd: 0.12 nM
[2]
  IC50: 8.3 nM
[3]
  NRAS/KRAS (ratio of KD value for NRAS to KD value for KRAS): A (a compound having 10 or more and less than 20 is denoted as A)
[4]
  HRAS/KRAS (ratio of KD value for HRAS to KD value for KRAS): B (a compound having 3 or more and less than 10 is denoted as B)

## CCOC[C@H]1C(=O)N[C@@H]([C@@H](C)CC)C(=O)N(C)CC(=O)N(C)[C@H]2C/C=C\CCN(C2=O)[C@@H](Cc2ccc(C)cc2)C(=O)N(C)CC(=O)N[C@@H](CCc2ccc(C(F)(F)F)c(Cl)c2)C(=O)N2C[C@H](OCC)C[C@H]2C(=O)NC2(CC(C)(C)C2)C(=O)N(C)[C@@H](C2CCCC2)C(=O)N(C)[C@H](C(=O)N(C)C)CC(=O)N1C [PP2395]
[1]
  Kd: 0.072 nM
[2]
  IC50: 6.3 nM
[3]
  NRAS/KRAS (ratio of KD value for NRAS to KD value for KRAS): A (a compound having 10 or more and less than 20 is denoted as A)
[4]
  HRAS/KRAS (ratio of KD value for HRAS to KD value for KRAS): B (a compound having 3 or more and less than 10 is denoted as B)

## CCO[C@@H]1C[C@H]2C(=O)NC3(CC(C)(C)C3)C(=O)N(C)[C@@H](C3CCCC3)C(=O)N(C)[C@H](C(=O)N(C)CC)CC(=O)N(C)[C@@H](COC)C(=O)N[C@@H]([C@@H](C)CC)C(=O)N(C)CC(=O)N(C)[C@H]3C/C=C\CCN(C3=O)[C@@H](Cc3ccc(C)cc3)C(=O)N(C)CC(=O)N[C@@H](CCc3cc(F)c(C(F)(F)F)c(F)c3)C(=O)N2C1 [PP2396]
[1]
  Kd: 0.069 nM
[2]
  IC50: 4.1 nM
[3]
  NRAS/KRAS (ratio of KD value for NRAS to KD value for KRAS): A (a compound having 10 or more and less than 20 is denoted as A)
[4]
  HRAS/KRAS (ratio of KD value for HRAS to KD value for KRAS): A (a compound having 10 or more and less than 20 is denoted as A)

## CCOC[C@H]1C(=O)N[C@@H]([C@@H](C)CC)C(=O)N(C)CC(=O)N(C)[C@H]2C/C=C\CCN(C2=O)[C@@H](Cc2ccc(C)cc2)C(=O)N(C)CC(=O)N[C@@H](CCc2cc(F)c(C(F)(F)F)c(F)c2)C(=O)N2C[C@H](OCC)C[C@H]2C(=O)NC2(CC(C)(C)C2)C(=O)N(C)[C@@H](C2CCCC2)C(=O)N(C)[C@H](C(=O)N(C)C)CC(=O)N1C [PP2397]
[1]
  Kd: 0.051 nM
[2]
  IC50: 4.7 nM
[3]
  NRAS/KRAS (ratio of KD value for NRAS to KD value for KRAS): A (a compound having 10 or more and less than 20 is denoted as A)
[4]
  HRAS/KRAS (ratio of KD value for HRAS to KD value for KRAS): A (a compound having 10 or more and less than 20 is denoted as A)

## CCO[C@@H]1C[C@H]2C(=O)NC3(CC(C)(C)C3)C(=O)N(C)[C@@H](C3CCCC3)C(=O)N(C)[C@H](C(=O)N(CC)CC)CC(=O)N(C)[C@@H](COC)C(=O)N[C@@H]([C@@H](C)CC)C(=O)N(C)CC(=O)N(C)[C@H]3C/C=C\CCN(C3=O)[C@@H](Cc3ccc(C)cc3)C(=O)N(C)CC(=O)N[C@@H](CCc3ccc(C(F)(F)F)c(OC)c3)C(=O)N2C1 [PP2398]
[1]
  Kd: 0.23 nM
[2]
  IC50: 11.4 nM
[3]
  NRAS/KRAS (ratio of KD value for NRAS to KD value for KRAS): A (a compound having 10 or more and less than 20 is denoted as A)
[4]
  HRAS/KRAS (ratio of KD value for HRAS to KD value for KRAS): A (a compound having 10 or more and less than 20 is denoted as A)
